Among the data in PubChem BioAssay (NCI) are GI50 and TGI values, retold here.

Some test systems named below: MOLT-4 leukemia; MDA-MB-435; HT29 colon; MCF7 breast; K-562 leukemia; RPMI-8226 leukemia; U251 CNS; OVCAR-3 ovarian; RXF 393 renal; M14 melanoma.
Experiment in all cases: NCI-60 cell line screen, 48 h

SMILES strings stand for the structures.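 Results reflect a 48-hour exposure of cells in 96-well plates to compound at five concentrations. Here, GI50 denotes the concentration required for 50% inhibition of growth. The concentration for full growth arrest is given as TGI.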

For `COc1cc(-n2cc(-c3ccc(Cl)c(Cl)c3)nc2SCc2ccccc2)cc(OC)c1OC`, the GI50 with MOLT-4 leukemia is 55.9 µM; with MDA-MB-435, more than 100 µM; with HT29 colon, more than 100 µM; in the assay on MCF7 breast, more than 100 µM; in the assay with K-562 leukemia it was more than 100 µM; with RPMI-8226 leukemia it was more than 100 µM. In addition, the GI50 was more than 100 µM in the assay on U251 CNS, more than 100 µM in the assay with OVCAR-3 ovarian, 92.5 µM in the assay on RXF 393 renal and more than 100 µM in the assay on M14 melanoma. Also, the TGI in the assay on MOLT-4 leukemia, in the assay on MDA-MB-435, in the assay on HT29 colon, in the assay with MCF7 breast, with K-562 leukemia and in the assay with RPMI-8226 leukemia was more than 100 µM each time. Moreover, the TGI with U251 CNS, in the assay on OVCAR-3 ovarian, in the assay with RXF 393 renal and in the assay with M14 melanoma was more than 100 µM throughout.
For the compound `CN(C)CC(=O)N1CCC(c2ccc(NC(=O)c3ncc(C#N)[nH]3)c(C3=CCCCC3)c2)CC1`, the GI50 with MOLT-4 leukemia is 3.72 µM; in the assay with MDA-MB-435 it was 2.99 µM; in the assay on HT29 colon, 2.8 µM; in the assay with MCF7 breast, 3.37 µM; in the assay with K-562 leukemia, 3.21 µM; in the assay with RPMI-8226 leukemia, 8.76 µM. Moreover, the GI50 with U251 CNS was 4.66 µM; in the assay on OVCAR-3 ovarian, 15.7 µM; in the assay on RXF 393 renal it was 3.25 µM; with M14 melanoma, 2.21 µM. Moreover, the TGI with MOLT-4 leukemia is 12.7 µM; with MDA-MB-435 it was 12.6 µM; in the assay on HT29 colon, 10.2 µM; with MCF7 breast, 16.9 µM; with K-562 leukemia, 12 µM; with RPMI-8226 leukemia, 34.6 µM. In addition, the TGI in the assay with U251 CNS came out at 16.9 µM; in the assay with OVCAR-3 ovarian, 29.6 µM; in the assay with RXF 393 renal it was 14.2 µM; in the assay on M14 melanoma, 4.97 µM.
For the compound `C=C1C(O)C2CCC(C)(C)C(=O)C2=C(CC(C)C)C12CC2` (configuration not stated), the GI50 in the assay on MOLT-4 leukemia is 33.1 µM; with MDA-MB-435, 67.4 µM; in the assay on HT29 colon it was 76.6 µM; in the assay on MCF7 breast, 35 µM; in the assay on K-562 leukemia, 31.9 µM; in the assay on RPMI-8226 leukemia it was 22.3 µM. Further, the GI50 is 43.4 µM with U251 CNS, 34.7 µM with OVCAR-3 ovarian, 53.1 µM in the assay with RXF 393 renal and 80.8 µM in the assay on M14 melanoma. The TGI was more than 100 µM in the assay on MOLT-4 leukemia; more than 100 µM in the assay on MDA-MB-435; more than 100 µM in the assay on HT29 colon; more than 100 µM in the assay with MCF7 breast; more than 100 µM in the assay on K-562 leukemia; 56.8 µM with RPMI-8226 leukemia. In addition, the TGI in the assay on U251 CNS, with OVCAR-3 ovarian, in the assay with RXF 393 renal and with M14 melanoma was more than 100 µM each time.
Consider `COc1ccc(-c2cc(-c3cc(Cl)ccc3Cl)nc3[nH]c(-c4cc(F)c(Cl)cc4Cl)cc(=O)c23)cc1`, for which the GI50 is 24.2 µM with MOLT-4 leukemia; 6.4 µM with MDA-MB-435; 39.2 µM with HT29 colon; 60.9 µM in the assay on MCF7 breast; 29.3 µM with K-562 leukemia; 25 µM in the assay on RPMI-8226 leukemia. Further, the GI50 in the assay with U251 CNS is 21.8 µM; with OVCAR-3 ovarian it was more than 100 µM; with RXF 393 renal it was 17.4 µM; in the assay with M14 melanoma it was 13.5 µM. Moreover, the TGI was 68.6 µM in the assay on MOLT-4 leukemia; more than 100 µM in the assay on MDA-MB-435; more than 100 µM in the assay with HT29 colon; more than 100 µM with MCF7 breast; more than 100 µM in the assay on K-562 leukemia; 69.1 µM in the assay on RPMI-8226 leukemia. Further, the TGI in the assay on U251 CNS was 61.6 µM; in the assay with OVCAR-3 ovarian, more than 100 µM; with RXF 393 renal, more than 100 µM; with M14 melanoma, 35.8 µM.
With `C=CC(=O)N[C@H]1C=C(C)c2c(-c3cnc4ccccc4c3)c3c(N)ncnc3n2C1`, the GI50 is 24.5 µM with MOLT-4 leukemia; 17.8 µM in the assay on MDA-MB-435; 11 µM in the assay on HT29 colon; 21.1 µM in the assay on MCF7 breast; 24.8 µM in the assay on K-562 leukemia; 17.9 µM with RPMI-8226 leukemia. Moreover, the GI50 in the assay on U251 CNS is 21.4 µM; in the assay on OVCAR-3 ovarian it was 8.27 µM; in the assay on RXF 393 renal, 2.68 µM; with M14 melanoma it was 10 µM. Also, the TGI in the assay with MOLT-4 leukemia was more than 100 µM; with MDA-MB-435, 67 µM; in the assay with HT29 colon, more than 100 µM; in the assay on MCF7 breast, more than 100 µM; in the assay on K-562 leukemia, more than 100 µM; with RPMI-8226 leukemia it was 60.6 µM. Also, the TGI in the assay on U251 CNS was 68.2 µM; in the assay with OVCAR-3 ovarian, 52.2 µM; in the assay with RXF 393 renal, 11.7 µM; with M14 melanoma, 32.4 µM.
As for `NC(CO)Cc1cnc[nH]1` (configuration not stated), the GI50 in the assay on MOLT-4 leukemia, in the assay with MDA-MB-435, in the assay with HT29 colon, with MCF7 breast, with K-562 leukemia and with RPMI-8226 leukemia was more than 100 µM in each case. Besides, the GI50 with U251 CNS and in the assay on OVCAR-3 ovarian was more than 100 µM in each case. Moreover, the TGI with MOLT-4 leukemia, in the assay with MDA-MB-435, in the assay on HT29 colon, in the assay with MCF7 breast, in the assay with K-562 leukemia and in the assay with RPMI-8226 leukemia was more than 100 µM in each case. Further, the TGI is more than 100 µM in the assay with U251 CNS, more than 100 µM in the assay on OVCAR-3 ovarian, more than 10 µM with RXF 393 renal and more than 100 µM in the assay with M14 melanoma.
Take `CN=C(N)N/N=C(\c1ccccc1)c1ccc(Br)cc1`: the GI50 is 0.362 µM in the assay with MOLT-4 leukemia; 0.179 µM in the assay on MDA-MB-435; 0.322 µM with HT29 colon; 0.268 µM in the assay with MCF7 breast; 0.294 µM with K-562 leukemia; 0.441 µM with RPMI-8226 leukemia. Also, the GI50 is 0.375 µM in the assay on U251 CNS, 0.29 µM with OVCAR-3 ovarian, 0.247 µM with RXF 393 renal and 0.272 µM in the assay on M14 melanoma. Also, the TGI amounted to 7.3 µM in the assay on MOLT-4 leukemia; 0.511 µM in the assay on MDA-MB-435; 1.72 µM in the assay with HT29 colon; 8.33 µM in the assay with MCF7 breast; 6.31 µM in the assay with K-562 leukemia; 3.13 µM in the assay on RPMI-8226 leukemia. Besides, the TGI was 2.63 µM in the assay on U251 CNS, 2.55 µM in the assay on OVCAR-3 ovarian, 0.711 µM in the assay with RXF 393 renal and 0.872 µM in the assay on M14 melanoma.
Turning to `Cc1nn(-c2ccc(F)cc2)c2ncnc(Nc3ccc(NC(=O)Nc4ccc(Cl)c(C(F)(F)F)c4)cc3)c12`, the GI50 in the assay with MOLT-4 leukemia is 2.67 µM; in the assay on MDA-MB-435, 3.26 µM; in the assay with HT29 colon it was 2.76 µM; in the assay with MCF7 breast, 2.11 µM; with K-562 leukemia, 1.75 µM; in the assay with RPMI-8226 leukemia, 1.71 µM. Moreover, the GI50 in the assay with U251 CNS was 1.49 µM; in the assay on OVCAR-3 ovarian, 2.06 µM; with RXF 393 renal it was 1.86 µM; with M14 melanoma, 3.03 µM. The TGI is 22.2 µM with MOLT-4 leukemia; 12.6 µM in the assay with MDA-MB-435; 9.82 µM in the assay with HT29 colon; 6.67 µM in the assay with MCF7 breast; more than 100 µM in the assay on K-562 leukemia; 9.54 µM in the assay with RPMI-8226 leukemia. In addition, the TGI in the assay with U251 CNS was determined as 3.62 µM; in the assay with OVCAR-3 ovarian, 5.79 µM; with RXF 393 renal it was 5.98 µM; in the assay with M14 melanoma, 11.6 µM.
Take `COC1(C(=O)N2Cc3nc(Cl)nc(N[C@H](C)c4cc(N)cc(C(F)(F)F)c4)c3C2)CCOCC1`: the GI50 is 9.05 µM in the assay on MOLT-4 leukemia; 18.6 µM in the assay on MDA-MB-435; 18 µM with HT29 colon; 17.5 µM in the assay with MCF7 breast; 0.888 µM in the assay on K-562 leukemia; 22.2 µM in the assay on RPMI-8226 leukemia. Moreover, the GI50 was 14.4 µM in the assay on U251 CNS, 16.3 µM in the assay on OVCAR-3 ovarian, 15.8 µM in the assay with RXF 393 renal and 17.8 µM in the assay with M14 melanoma. For the same compound, the TGI in the assay with MOLT-4 leukemia was 50.5 µM; with MDA-MB-435, 41.4 µM; in the assay on HT29 colon, 36.6 µM; with MCF7 breast it was 49.3 µM; in the assay on K-562 leukemia, more than 68.4 µM; with RPMI-8226 leukemia, more than 83.2 µM. Also, the TGI with U251 CNS worked out at 37.7 µM; with OVCAR-3 ovarian, 49 µM; in the assay with RXF 393 renal, 43.6 µM; with M14 melanoma, 40.6 µM.
Take `CC(C)(C)OC(=O)n1cc(CNC(=S)Nc2ccccc2)c2ccccc21`: the GI50 in the assay on MOLT-4 leukemia is 3.88 µM; with MDA-MB-435 it was 12.2 µM; in the assay on HT29 colon, 22.3 µM; in the assay on MCF7 breast, 9.02 µM; in the assay on K-562 leukemia, 8.73 µM; with RPMI-8226 leukemia it was 3.27 µM. For the same compound, the GI50 in the assay on U251 CNS was 4.18 µM; in the assay with OVCAR-3 ovarian, 11.7 µM; in the assay on RXF 393 renal, 19.3 µM; in the assay on M14 melanoma it was 17.7 µM. In addition, the TGI with MOLT-4 leukemia is more than 100 µM; in the assay on MDA-MB-435 it was 30.1 µM; in the assay with HT29 colon, more than 100 µM; in the assay on MCF7 breast, 48 µM; in the assay with K-562 leukemia it was 70.1 µM; with RPMI-8226 leukemia, 16.4 µM. Besides, the TGI amounted to 16 µM with U251 CNS, 27.7 µM in the assay with OVCAR-3 ovarian, 43.2 µM in the assay with RXF 393 renal and 33.3 µM in the assay with M14 melanoma.
For `CN1CCN(Cc2ccc(C(=O)Nc3cncc(C#Cc4cnc(N)c5ccccc45)c3)cc2C(F)(F)F)CC1`, the GI50 with MOLT-4 leukemia was 2.17 µM; with MDA-MB-435, 1.71 µM; in the assay with HT29 colon, 2.05 µM; in the assay on MCF7 breast, 1.67 µM; with RPMI-8226 leukemia it was 2.15 µM; with U251 CNS it was 1.78 µM. The GI50 in the assay with OVCAR-3 ovarian was 1.95 µM; with RXF 393 renal, 1.55 µM; in the assay with M14 melanoma, 4.22 µM. For the same compound, the TGI in the assay with MOLT-4 leukemia is 5.31 µM; with MDA-MB-435, 3.12 µM; in the assay with HT29 colon it was 5.02 µM; in the assay with MCF7 breast it was 3.39 µM; with K-562 leukemia, 1.15 µM; with RPMI-8226 leukemia, 5.27 µM. Moreover, the TGI with U251 CNS amounted to 3.33 µM; with OVCAR-3 ovarian it was 3.71 µM; in the assay on RXF 393 renal, 3.01 µM; in the assay on M14 melanoma, 14.8 µM.
In the case of `CCn1c(-c2nonc2N)nc2c(C#CCN)ncc(OCCCN)c21`, the GI50 in the assay with MOLT-4 leukemia, in the assay on MDA-MB-435, with HT29 colon, in the assay with MCF7 breast, in the assay with K-562 leukemia and in the assay on RPMI-8226 leukemia was more than 25 µM in each case. Further, the GI50 in the assay on U251 CNS, in the assay on OVCAR-3 ovarian, in the assay with RXF 393 renal and in the assay with M14 melanoma was more than 25 µM in each case. Moreover, the TGI in the assay on MOLT-4 leukemia, in the assay with MDA-MB-435, in the assay with HT29 colon, with MCF7 breast, with K-562 leukemia and in the assay with RPMI-8226 leukemia was more than 25 µM in each case. Further, the TGI in the assay on U251 CNS, in the assay on OVCAR-3 ovarian, in the assay on RXF 393 renal and in the assay with M14 melanoma was more than 25 µM each time.
